Test results from the supplement of paper PMC11781733.
Counter-ions that a name gives are not always drawn.

Assays:
Settings in all cases: exposure time: 15 min to 3 h acute
Dugesia japonica [1] = experiment: loss of phototaxis incidence (% planarians (vehicle-normalised)); higher = higher incidence or increase relative to vehicle control
Method in brief: (§1)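 Loss of phototaxis was scored as a yes/no endpoint in intact, fasted Dugesia japonica, one per well of a 48-well plate in 200 μL. Worms were tested 15 min to 3 h after exposure in 0.5% DMSO or water vehicle, using automated object tracking. Eight worms per concentration per plate were run in technical triplicate (n = 24). The incidence rate ×100 was normalised to in-plate vehicle controls, negatives were set to 0, and worms that crawled out were excluded.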

Dugesia japonica [2] = experiment: C-shape incidence (% planarians (vehicle-normalised)); higher = higher incidence or increase relative to vehicle control
Method in brief: (§2)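 Single D. japonica planarians, fasted 5–7 days, sat in 200 μL per well of sealed 48-well plates and were screened 15 minutes–3 hours after exposure to at least 5 concentrations. Shapes were scored by hand and blind. The reported value is the incidence of a particular shape, or of any abnormal shape, ×100, set against in-plate vehicle controls with negatives taken as 0.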

Dugesia japonica [3] = experiment: resting fraction in blue light vs vehicle (difference in fraction x100 vs vehicle); higher = higher incidence or increase relative to vehicle control
Method in brief: (§3)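 The resting fraction, in the dark or under blue light, comes from automated tracking of intact, fasted Dugesia japonica. Worms sat singly in wells of a 48-well plate in 200 μL and were tested 15 min to 3 h after exposure in 0.5% DMSO or water vehicle. The plate's vehicle median was subtracted from each worm and the difference multiplied by 100, then the median was reported after excluding worms that crawled out.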

Dugesia japonica [4] = experiment: stickiness incidence (% planarians (vehicle-normalised)); higher = higher incidence or increase relative to vehicle control
Method in brief: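 Fasted Dugesia japonica planarians, one per well of a sealed 48-well plate in 200 μL solution, were tested 15 min–3 h after exposure to half- or quarter-log concentration series. The vehicle was 0.5% DMSO or water. Stickiness was scored as a binary endpoint in the Stickiness assay, pooling technical triplicates (n = 24). Incidence was normalised to in-plate vehicle incidence, with negatives set to 0, and multiplied by 100. Crawled-out worms were excluded.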

Dugesia japonica [5] = experiment: noxious heat displacement strength vs vehicle (% change vs vehicle); higher = higher incidence or increase relative to vehicle control
Method in brief: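 Values are the median percent change in displacement strength under noxious heat, scored by automated object tracking in the scrunching assay with intact, fasted Dugesia japonica. Each worm was placed alone in a well of a 48-well plate in 200 μL and tested 15 min to 3 h after exposure in 0.5% DMSO or water vehicle. Eight worms per concentration per plate were run in technical triplicate (n = 24), with each worm normalised to the plate's vehicle median and worms that crawled out excluded.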

Dugesia japonica [6] = experiment: total locomotor bursts minus vehicle (bursts difference vs vehicle); higher = higher incidence or increase relative to vehicle control
Method in brief: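 Fasted Dugesia japonica planarians were placed one per well in a sealed 48-well plate with 200 μL solution and exposed to half- or quarter-log concentration series, with 0.5% DMSO or water as vehicle. Testing took place 15 min–3 h after exposure, with technical triplicates totalling n = 24. Total locomotor bursts, an unstimulated behaviour, were scored by image-based object tracking, and the plate vehicle-control median was subtracted from each planarian's value without scaling. The reported value is the median normalised response, excluding worms that crawled out.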

Dugesia japonica [7] = experiment: loss of heat-induced scrunching incidence (% planarians (vehicle-normalised)); higher = higher incidence or increase relative to vehicle control
Method in brief: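 Planarians of the species D. japonica, fasted for 5–7 days, were placed singly in wells of sealed 48-well plates in 200 μL and exposed to at least 5 concentrations, 24 worms per concentration in technical triplicates. Scrunching in response to a noxious heat stimulus was tested within 15 minutes–3 hours, and any worm that crawled out was excluded. The reported figure is the incidence of non-scrunching worms, normalised to vehicle controls on the same plate. This incidence is given ×100, with negatives set to 0.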

Dugesia japonica [8] = experiment: pharynx extrusion incidence (% planarians (vehicle-normalised)); higher = higher incidence or increase relative to vehicle control
Method in brief: as §1, with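 “Pharynx extrusion” for “Loss of phototaxis”, “scored manually and blind” for “scored”, “body-shape category” for “yes/no endpoint”, “vehicle.” for “vehicle, using automated object tracking.”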

Dugesia japonica [9] = experiment: contracted body shape incidence (% planarians (vehicle-normalised)); higher = higher incidence or increase relative to vehicle control
Method in brief: as §2

Dugesia japonica [10] = experiment: corkscrew incidence (% planarians (vehicle-normalised)); higher = higher incidence or increase relative to vehicle control
Method in brief: as §2

Dugesia japonica [11] = experiment: hyperkinesis incidence (% planarians (vehicle-normalised)); higher = higher incidence or increase relative to vehicle control
Method in brief: as §2

Dugesia japonica [12] = experiment: speed second 30 s blue light vs vehicle (% change vs vehicle); higher = higher incidence or increase relative to vehicle control
Method in brief: (§4)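 For each worm, crawling speed under dark or blue-light conditions was tracked automatically and expressed against the median of that plate's vehicle worms, and the reported value is the median percent change. The worms were intact, fasted Dugesia japonica held one per well in 200 μL in a 48-well plate, exposed in 0.5% DMSO or water vehicle and tested from 15 min to 3 h afterwards. Eight were used per concentration per plate across technical triplicate (n = 24), excluding any that crawled out.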

Dugesia japonica [13] = experiment: crawl-out incidence (% planarians); higher = higher incidence or increase relative to vehicle control
Dugesia japonica [14] = experiment: speed in dark vs vehicle (% change vs vehicle); higher = higher incidence or increase relative to vehicle control
Method in brief: as §4

Dugesia japonica [15] = experiment: any abnormal body shape incidence (% planarians (vehicle-normalised)); higher = higher incidence or increase relative to vehicle control
Method in brief: as §2

Dugesia japonica [16] = experiment: anxiety (time in outer well region) vs vehicle (% change vs vehicle); higher = higher incidence or increase relative to vehicle control
Method in brief: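 The value is the median normalized time that planarians spent in the outer portion of the well. D. japonica worms, fasted 5–7 days, were held singly in 200 μL per well of sealed 48-well plates at at least 5 concentrations (n = 24 per concentration) and screened within 15 minutes–3 hours. Each worm's response was divided by, or reduced by, the plate vehicle median and then multiplied by 100, and worms that crawled out were left out.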

Dugesia japonica [17] = experiment: resting fraction in dark vs vehicle (difference in fraction x100 vs vehicle); higher = higher incidence or increase relative to vehicle control
Method in brief: as §3

Dugesia japonica [18] = experiment: speed first 30 s blue light vs vehicle (% change vs vehicle); higher = higher incidence or increase relative to vehicle control
Method in brief: as §4

Row | SMILES | loss of phototaxis incidence (Dugesia japonica [1]) | C-shape incidence (Dugesia japonica [2]) | resting fraction in blue light (Dugesia japonica [3]) | stickiness incidence (Dugesia japonica [4]) | noxious heat displacement strength (Dugesia japonica [5]) | total locomotor bursts minus vehicle (Dugesia japonica [6]) | loss of heat-induced scrunching incidence (Dugesia japonica [7]) | pharynx extrusion incidence (Dugesia japonica [8]) | contracted body shape incidence (Dugesia japonica [9]) | corkscrew incidence (Dugesia japonica [10]) | hyperkinesis incidence (Dugesia japonica [11]) | speed second 30 s blue light (Dugesia japonica [12]) | crawl-out incidence (Dugesia japonica [13]) | speed in dark (Dugesia japonica [14]) | any abnormal body shape incidence (Dugesia japonica [15]) | anxiety (Dugesia japonica [16]) | resting fraction in dark (Dugesia japonica [17]) | speed first 30 s blue light (Dugesia japonica [18])
1 | CN1CCN(CCCN2c3ccccc3Sc3ccc(Cl)cc32)CC1 [prochloroperazine] (100 µM) | 76.5 | 35 | 82.2 | ≤ 0 | -41.6 | 0.25 | 75 | 0 | 75 | 5 | 0 | -92.9 | 29.2 | -72.3 | 70 | -100 | 77 | -91.1
2 | CN(C)CCCN1c2ccccc2CCc2ccccc21 [imipramine] (1 µM) | ≤ 0 | 0 | 0.17 | ≤ 0 | -4.45 | 3 | ≤ 0 | 0 | 0 | 0 | 0 | -18.2 | 0 | -23.4 | 4.17 | -4.11 | 6.78 | -21.6
3 | CN(C)CCCC1(c2ccc(F)cc2)OCc2cc(C#N)ccc21 (stereo unspecified) [citalopram hydrobromide] (316 µM) | 4.35 | 0 | 0.559 | 8.7 | -25.1 | -3.5 | 13 | 0 | 0 | 0 | 13 | 6.83 | 0 | 10.9 | 13 | 12.2 | 1.16 | 1.47
4 | O=C(O)C(=O)O [oxalic acid] (100 µM) | ≤ 0 | 0 | 1.86 | ≤ 0 | -11.5 | 6.5 | 8.33 | 0 | 0 | 0 | 12.5 | -8.31 | 0 | -6.93 | 12.5 | 24.9 | -1.66 | -25.2
5 | CN1CC(=O)N=C1NC(=O)Nc1cccc(Cl)c1 [fenobam] (316 µM) | ≤ 0 | 0 | 0.18 | ≤ 0 | -32.2 | 0 | ≤ 0 | 0 | 0 | 0 | 0 | -16.9 | 0 | -12.6 | 0 | -0.1 | 0 | -14.2
6 | CC(NC(C)(C)C)C(=O)c1cccc(Cl)c1 (stereo unspecified) [bupropion] (316 µM) | ≤ 0 | 0 | 25.2 | 29.2 | -7.65 | -7 | 8.33 | 0 | 0 | 0 | 4.17 | -21.6 | 0 | 22.5 | 0 | 5.33 | 51.6 | -72
7 | O=C1CC2(CCCC2)CC(=O)N1CCCCN1CCN(c2ncccn2)CC1 [buspirone] (3.16 µM) | 16.7 | 0 | 8.98 | 4.17 | -34.1 | 4.25 | ≤ 0 | 0 | 0 | 0 | 8.33 | -34.4 | 0 | 8.61 | 8.33 | -2.65 | 4.15 | -21.3
8 | O=C1CCc2ccc(OCCCCN3CCN(c4cccc(Cl)c4Cl)CC3)cc2N1 [aripiprazole] (10 µM) | 25 | 12.5 | 19.8 | ≤ 0 | -17.3 | 31 | 16.7 | 0 | 0 | 4.17 | 4.17 | -63.1 | 0 | -46.8 | 20.8 | -16.3 | 34.5 | -70.8
9 | CN1CC(=O)N=C1NC(=O)Nc1cccc(Cl)c1 [fenobam] (100 µM) | ≤ 0 | 0 | 0.38 | ≤ 0 | -43 | 2 | 8.33 | 0 | 0 | 0 | 0 | -27 | 0 | -18.5 | 0 | -2.96 | 0 | -26.8
10 | O=C(CCCN1CCC(O)(c2ccc(Cl)cc2)CC1)c1ccc(F)cc1 [haloperidol] (3.16 µM) | 31.8 | 0 | 12.2 | ≤ 0 | -30.8 | 4.5 | 9.09 | 0 | 4.76 | 4.76 | 0 | -58.4 | 8.33 | -38.5 | 9.52 | -3.6 | 16.5 | -68.4
11 | CN1CCN(C2=Nc3cc(Cl)ccc3Nc3ccccc32)CC1 [clozapine] (31.6 µM) | 54.2 | 29.2 | 75.8 | ≤ 0 | -34.2 | -3 | 66.7 | 0 | 4.17 | 29.2 | 50 | -91.3 | 0 | -76.4 | 87.5 | -27.4 | 77.6 | -93.4
12 | CN[C@H]1CC[C@@H](c2ccc(Cl)c(Cl)c2)c2ccccc21 [sertraline hydrochloride] (3.16 µM) | 18.2 | 0 | 4.62 | 4.55 | -5.25 | 8 | ≤ 0 | 0 | 0 | 0 | 4.55 | -31.9 | 8.33 | -20.1 | 4.55 | 15.3 | 1.05 | -25.9
13 | Cc1ncc2n1-c1ccc(Cl)cc1C(c1ccccc1F)=NC2 [midazolam] (100 µM) | 29.2 | 20.8 | 68.2 | 20.8 | -48.3 | 28.5 | 45.8 | 4.17 | 45.8 | 0 | 70.8 | -87.7 | 0 | -70.7 | 95.8 | 2.35 | 59.7 | -93
14 | O=C1CC2(CCCC2)CC(=O)N1CCCCN1CCN(c2ncccn2)CC1 [buspirone] (100 µM) | 42.9 | 0 | 44.9 | 19.1 | -53.2 | 0.5 | 57.1 | 0 | 0 | 4.76 | 4.76 | -81.2 | 12.5 | -41 | 9.52 | -20.5 | 43 | -79.9
15 | CN1CCN(CCCN2c3ccccc3Sc3ccc(Cl)cc32)CC1 [prochloroperazine] (31.6 µM) | 63.2 | 34.8 | 75.3 | ≤ 0 | -47.9 | -3 | 65.2 | 0 | 21.7 | 4.35 | 26.1 | -83.6 | 20.8 | -65.5 | 73.9 | 24 | 60.9 | -89.8
16 | CC(NC(C)(C)C)C(=O)c1cccc(Cl)c1 (stereo unspecified) [bupropion] (100 µM) | 4.17 | 0 | -3.29 | 13 | -32.4 | -1 | 12.5 | 0 | 0 | 0 | 0 | 20.6 | 0 | -35.4 | 0 | 3.91 | 25.7 | 9.9
17 | CN(C)CCC[C@@]1(c2ccc(F)cc2)OCc2cc(C#N)ccc21 [escitalopram] (1000 µM) | 8.7 | 0 | 18.9 | 30.4 | -59 | 37.8 | 60.9 | 0 | 4.35 | 26.1 | 56.5 | -66.8 | 4.17 | -42.1 | 69.6 | 19.7 | 17.6 | -68.2
